This experiment deals with MCH receptors. The experiment is described as follows: MCH receptor activity class (method not given). The conditions noted are these: class by percent of control at 10^-7 M or IC50.

For the compound `COc1ccc(NC(=O)N[C@H]2CC[C@@H](Nc3cc(N(C)C)c4ccccc4n3)CC2)c(C)c1` [compound 2156], the class is on record as 3 (Class 3 The value of percent of control at 10^−7 M was more than 60% or the value of IC50 was more than 200 nM.).
Then `COc1cc(OC)c(NC(=O)N[C@H]2CC[C@@H](Nc3cc(N(C)C)c4ccccc4n3)CC2)cc1Cl` [compound 2157, N-(5-chloro-2,4-dimethoxyphenyl)-N′-(cis-4-{[4-(dimethylamino)quinolin-2-yl]amino}cyclohexyl)urea], with 1 (Class 1: The value of percent of control at 10^−7 M was less than 40% or the value of IC50 was less than 50 nM.); and `Cc1cc(Br)ccc1NC(=O)N[C@H]1CC[C@@H](Nc2cc(N(C)C)c3ccccc3n2)CC1` [compound 2159], with 2 (Class 2: The value of percent of control at 10^−7 M was from 40% to 60% or the value of IC′50 was from 50 nM to 200 nM.); and `CN(C)c1cc(N[C@H]2CC[C@@H](NC(=O)Nc3ccc4c(c3)OCCO4)CC2)nc2ccccc12` [compound 2161], with 3 (Class 3 The value of percent of control at 10^−7 M was more than 60% or the value of IC50 was more than 200 nM.).
In the case of `CC(C)c1cc(Br)c(NC(=O)N[C@H]2CC[C@@H](Nc3cc(N(C)C)c4ccccc4n3)CC2)c(Br)c1` [compound 2162], the class is 3 (Class 3 The value of percent of control at 10^−7 M was more than 60% or the value of IC50 was more than 200 nM.).
The result for `COc1ccc(NC(=O)N[C@H]2CC[C@@H](Nc3cc(N(C)C)c4ccccc4n3)CC2)cc1OC1CCCC1` [compound 2163] reads 3 (Class 3 The value of percent of control at 10^−7 M was more than 60% or the value of IC50 was more than 200 nM.); that for `CN(C)c1cc(N[C@H]2CC[C@@H](NC(=O)Nc3ccc4c(c3)OCCCO4)CC2)nc2ccccc12` [compound 2164], 3 (Class 3 The value of percent of control at 10^−7 M was more than 60% or the value of IC50 was more than 200 nM.); that for `CCCCc1ccc(NC(=O)N[C@H]2CC[C@@H](Nc3cc(N(C)C)c4ccccc4n3)CC2)c(C)c1` [compound 2165], 3 (Class 3 The value of percent of control at 10^−7 M was more than 60% or the value of IC50 was more than 200 nM.).
The result for `Cc1onc(-c2ccccc2)c1NC(=O)N[C@H]1CC[C@@H](Nc2cc(N(C)C)c3ccccc3n2)CC1` [compound 2166] reads 3 (Class 3 The value of percent of control at 10^−7 M was more than 60% or the value of IC50 was more than 200 nM.); that for `CN(C)c1cc(N[C@H]2CC[C@@H](NC(=S)Nc3ccc(Br)cc3)CC2)nc2ccccc12` [compound 2167], 3 (Class 3 The value of percent of control at 10^−7 M was more than 60% or the value of IC50 was more than 200 nM.); that for `CN(C)c1cc(N[C@H]2CC[C@@H](NC(=S)Nc3ccc(C#N)cc3)CC2)nc2ccccc12` [compound 2168], 3 (Class 3 The value of percent of control at 10^−7 M was more than 60% or the value of IC50 was more than 200 nM.).
Then `CN(C)c1cc(N[C@H]2CC[C@@H](NC(=S)Nc3ccc(Cl)cc3Cl)CC2)nc2ccccc12` [compound 2169], with 3 (Class 3 The value of percent of control at 10^−7 M was more than 60% or the value of IC50 was more than 200 nM.); and `COc1ccc(NC(=S)N[C@H]2CC[C@@H](Nc3cc(N(C)C)c4ccccc4n3)CC2)c(OC)c1` [compound 2170], with 2 (Class 2: The value of percent of control at 10^−7 M was from 40% to 60% or the value of IC′50 was from 50 nM to 200 nM.).
Take `Cc1cccc(C)c1NC(=S)N[C@H]1CC[C@@H](Nc2cc(N(C)C)c3ccccc3n2)CC1` [compound 2171]: the class is recorded as 3 (Class 3 The value of percent of control at 10^−7 M was more than 60% or the value of IC50 was more than 200 nM.).
Then `CCc1cccc(C(C)C)c1NC(=S)N[C@H]1CC[C@@H](Nc2cc(N(C)C)c3ccccc3n2)CC1` [compound 2172], with 3 (Class 3 The value of percent of control at 10^−7 M was more than 60% or the value of IC50 was more than 200 nM.).

Values taken from US20050197350A1, “Novel quinoline, tetrahydroquinazoline, and pyrimidine derivatives and methods of treatment related to the use thereof” (TAISHO PHARMACEUTICAL CO., LTD., priority 2003, published 2005).
